Measurements taken from EP1086692A2, “Estrogen agonists and antagonists for multiple indications” (priority 1999, dated 2001).
“And” between values parts separate entries of the source, which are not always exact repeats. Identical values can stand only once.

What was measured:
human plasma proteins [1] = experiment: Binding of droloxifene and lasofoxifene to human plasma proteins; conditions: binding of the SERM itself, human plasma
[2] = as above; conditions: human, plasma
human plasma proteins [3] = experiment: Binding of propranolol to human plasma proteins in the absence and presence of droloxifene or lasofoxifene (equilibrium dialysis, HPLC-MS); conditions: result in words; droloxifene 200 ng/ml, lasofoxifene 50 ng/ml
Experimental: (§1) The effect of droloxifene or lasofoxifene on plasma protein binding was assessed at […] concentrations of 2 and 10 µg/ml and propranolol concentrations of 50 and 500 ng/ml. The concentrations of droloxifene and lasofoxifene used were 200 and 50 ng/ml respectively.

[4] = as above; conditions: human, plasma
Experimental: as §1

SMILES	bound to human plasma proteins (human plasma proteins [1])	fraction unbound [2]	effect on the protein binding of propranolol in human plasma (human plasma proteins [3])	fraction unbound [4]
CC/C(=C(/c1ccc(OCCN(C)C)cc1)c1cccc(O)c1)c1ccccc1 [droloxifene]	99.997%	3e-05	will not be altered	
Oc1ccc2c(c1)CC[C@H](c1ccccc1)[C@@H]2c1ccc(OCCN2CCCC2)cc1 [lasofoxifene, (-) cis-6-phenyl-5[4-(2-pyrrolitin-1-yl-ehtoxy)-phenyl]-5,6,7,8-tetrahydronaphthalene-2-ol]	99.997% and 99.94%		will not be altered	
CC(C)NCC(O)COc1cccc2ccccc12 (stereo not drawn) [propranolol, reference compound]				0.24
